Assay results reported in patent US9499502B2, “5-substituted iminothiazines and their mono- and dioxides as BACE inhibitors, compositions, and their use” (Merck Sharp & Dohme Corp., priority 2011, dated 2016).

Biological target: purified human autoBACE-2 (Homo sapiens (Human), UniProt Q9Y5Z0)
Experiment: BACE-2 Assay (BACE-HTRF assay)
Format: biochemical
Details: Ki calculated from IC50 using the Cheng-Prusoff equation; read-out: BACE2 Ki
Protocol: Inhibitor IC50s at purified human autoBACE-2 are determined in a time-resolved endpoint proteolysis assay that measures hydrolysis of the QSY7-[…]-Eu-amide FRET peptide substrate (BACE-HTRF assay). […] DMSO is present at 5% final concentration in the assay. Following laser excitation of sample wells at 320 nm, the fluorescence signal at 620 nm is collected for 400 ms following a 50 μs delay on a RUBYstar HTRF plate reader (BMG Labtechnologies). Raw RFU data is normalized to maximum (1.0 nM BACE/DMSO) and minimum (no enzyme/DMSO) RFU values. […] The Ki values are calculated from the IC50 using the Cheng-Prusoff equation.

Chain of purified human autoBACE-2 (Q9Y5Z0 63-473): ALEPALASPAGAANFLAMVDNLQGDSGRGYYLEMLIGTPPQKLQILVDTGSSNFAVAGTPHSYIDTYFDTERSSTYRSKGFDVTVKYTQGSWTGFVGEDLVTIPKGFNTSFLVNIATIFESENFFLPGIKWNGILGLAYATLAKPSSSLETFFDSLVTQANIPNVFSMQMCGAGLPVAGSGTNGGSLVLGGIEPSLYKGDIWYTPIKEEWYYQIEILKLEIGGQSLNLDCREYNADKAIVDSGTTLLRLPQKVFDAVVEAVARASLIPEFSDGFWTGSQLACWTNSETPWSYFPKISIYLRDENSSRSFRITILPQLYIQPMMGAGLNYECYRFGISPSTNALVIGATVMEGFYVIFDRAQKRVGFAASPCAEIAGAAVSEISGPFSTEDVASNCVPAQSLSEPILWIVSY

SMILES	Ki [nM]
C[C@@]1(c2ccc(F)cc2F)CS(=O)(=O)[C@@](C)(c2cccc(C(F)(F)F)c2)C(=N)N1 [Example 32h-a]	126
COc1ccc(C(=O)Nc2ccc(F)c([C@]3(C)CS(=O)(=O)[C@@](C)(c4cccc(F)c4)C(=N)N3)c2)nc1 [Example 9dc-a]	11 to 100
CC1(CC(F)(F)F)C(=N)N[C@](C)(c2sc(-c3ccc(F)c(C#N)c3)cc2F)CS1(=O)=O (stereo partly shown) [Example 27bm-a]	7
COc1cnc(C(=O)Nc2ccc(F)c([C@]3(C)CS(=O)(=O)[C@](C)(c4ccc(F)cc4)C(=N)N3)c2)cn1 [Example 9dg-b]	101 to 700
C[C@]1(CC(F)(F)F)C(=N)N[C@](C)(c2sc(-c3cccc(-c4nnco4)c3)cc2F)CS1(=O)=O [Example 27bk-a]	9
CC[C@]1(C)C(=N)N[C@](C)(c2cc(NC(=O)c3ccc(OC)cn3)ccc2F)CS1(=O)=O [Example 9cm-b]	11 to 100
CC[C@]1(C)C(=N)N[C@](C)(c2cc(NC(=O)c3cnc(OC)cn3)ccc2F)CS1(=O)=O [Example 9cn-b]	11 to 100
C[C@@]1(c2cc(NC(=O)c3ccc(Cl)cn3)ccc2F)CS(=O)(=O)[C@@](C)(c2cccc(F)c2)C(=N)N1 [Example 9db-b]	11 to 100
COc1cnc(C(=O)Nc2ccc(F)c([C@]3(C)CS(=O)(=O)[C@](C)(c4cc(C(F)(F)F)ccn4)C(=N)N3)c2)cn1 [Example 9ee-b]	11 to 100
COc1cccc2cc(-c3ccc(F)c([C@]4(C)CS(=O)(=O)C(C)(C)C(=N)N4)c3)[nH]c12 [compound 11]	< 200

Further lines, results first:

Ki [nM]	SMILES
49	Cc1nnc(C(=O)Nc2ccc(F)c([C@]3(C)CS(=O)(=O)C(C)(C)C(=N)N3)c2)o1 [Example 9i]
4	Cc1ccc(C(=O)Nc2cc(F)c(F)c([C@]3(C)CS(=O)(=O)C(C)(C)C(=N)N3)c2)nc1 [Example 9bh]
16	CC1(C)C(=N)N[C@](C)(c2cc(NC(=O)c3cnc(OCC4CC4)cn3)ccc2F)CS1(=O)=O [Example 9p]
≤ 10	CC1(C)C(=N)N[C@](C)(c2nc(NC(=O)c3ccc(Cl)cn3)ccc2F)CS1(=O)=O [Example 9cc]
21	CC1(C)C(=N)N[C@](C)(c2nc(NC(=O)c3cnc(C(F)F)cn3)ccc2F)CS1(=O)=O [Example 9cj]
21	CC1(C)C(=N)N[C@](C)(c2sc(-c3cccc(-c4nnco4)c3)cc2Cl)CS1(=O)=O [Example 27ae]

Biological target: soluble human BACE1 catalytic domain (Homo sapiens (Human), UniProt P56817)
Sequence (P56817 75-416): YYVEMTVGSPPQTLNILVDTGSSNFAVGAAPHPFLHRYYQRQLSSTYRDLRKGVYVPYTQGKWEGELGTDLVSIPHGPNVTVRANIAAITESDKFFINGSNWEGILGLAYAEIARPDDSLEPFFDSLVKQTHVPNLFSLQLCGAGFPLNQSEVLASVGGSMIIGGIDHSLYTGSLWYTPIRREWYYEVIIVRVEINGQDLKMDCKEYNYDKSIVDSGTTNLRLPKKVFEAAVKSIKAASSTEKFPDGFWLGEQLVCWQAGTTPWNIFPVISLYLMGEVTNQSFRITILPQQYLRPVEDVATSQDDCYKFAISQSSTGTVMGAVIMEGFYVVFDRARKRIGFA
Experiment: BACE1 HTRF FRET Assay
Details: BACE1 Ki (nM)

Ki [nM]	SMILES
4640	Cc1nc2cc(CC3(C)C(=N)N[C@](C)(c4cc(F)ccc4F)CS3(=O)=O)ccc2o1 (single isomer, unassigned) [Example 32a-b]

Same assay, conditions: read-out: BACE1 % Inh. at 10 μM, at 10 μM

inhibition at 10 µM [%]	SMILES
23	CN(C)CC(=O)Nc1ccc(F)c([C@]2(C)CS(=O)(=O)C(C)(C)C(=N)N2)c1 [Example 9ay]

Same assay, conditions: read-out: BACE1 Ki

SMILES	Ki [nM]
C[C@@]1(c2ccc(F)cc2F)CS(=O)(=O)[C@@](C)(c2cccc(C(F)(F)F)c2)C(=N)N1 [Example 32h-a]	362
CC1(CC(F)(F)F)C(=N)N[C@](C)(c2sc(-c3ccc(F)c(C#N)c3)cc2F)CS1(=O)=O (stereo partly shown) [Example 27bm-a]	35
C[C@]1(CC(F)(F)F)C(=N)N[C@](C)(c2sc(-c3cccc(-c4nnco4)c3)cc2F)CS1(=O)=O [Example 27bk-a]	4.7
C[C@@]1(c2cccc(C(F)(F)F)c2)C(=N)N[C@](C)(c2ccc(F)cc2F)CS1(=O)=O [Example 32h-b]	2120
COc1cccc(C[C@@]2(C)C(=N)N[C@](C)(c3ccc(F)cc3F)CS2(=O)=O)c1 [Example 32i-a]	3120
C[C@@]1(c2ccc(F)cc2F)CS(=O)(=O)[C@](C)(Cc2cccc(Br)c2)C(=N)N1 [Example 32j-b]	1270
C[C@@]1(c2sc(-c3nnc(-c4ccc(Cl)cc4)o3)cc2F)CS(=O)(=O)[C@@](C)(c2ccccn2)C(=N)N1 [Example 27bz-a]	51

The next lines start with the values.

Ki [nM]	SMILES
2530	CC1(C)C(=N)N[C@](C)(c2sc(-c3ccc4nncn4c3)cc2Cl)CS1(=O)=O [Example 27p]
2630	CC1(C)C(=N)N[C@](C)(c2sc(-c3cn4ccsc4n3)cc2Cl)CS1(=O)=O [Example 28b]
79	COCC1(COC)C(=N)N[C@](C)(c2sc(-c3cc4cccc(OC)c4[nH]3)cc2Cl)CS1(=O)=O [Example 27bv]
804	COc1cccn2cc(-c3cc(Cl)c([C@]4(C)CS(=O)(=O)C(C)(C)C(=N)N4)s3)nc12 [Example 28a]
400	CC1(C)C(=N)N[C@](C)(c2sc(-c3cccc(C#N)c3F)cc2Cl)CS1(=O)=O [Example 27z]
66.6	CC1(C)C(=N)N[C@](C)(c2sc(-c3cccc(OC(F)F)c3)cc2Cl)CS1(=O)=O [Example 27o]
2380	CC1(C)C(=N)N[C@](C)(c2nc3ccc(-c4cccc(C#N)c4)cc3s2)CS1(=O)=O [Example 29c]
1110	CC1(C)C(=N)N[C@](C)(c2sc(-c3coc(-c4ccc(F)cc4)n3)cc2Cl)CS1(=O)=O [Example 27x]
1290	COc1cncc(-c2cc(Cl)c([C@]3(C)CS(=O)(=O)C(C)(C)C(=N)N3)s2)n1 [Example 27w]
170	CC1(C)C(=N)N[C@](C)(c2sc(-c3cc(F)cc(F)c3)cc2Cl)CS1(=O)=O [Example 27i]

Same assay, conditions: read-out: BACE1 Ki; Ki calculated from IC50 using the Cheng-Prusoff equation

SMILES	Ki [nM]
COc1ccc(C(=O)Nc2ccc(F)c([C@]3(C)CS(=O)(=O)[C@@](C)(c4cccc(F)c4)C(=N)N3)c2)nc1 [Example 9dc-a]	3
COc1cnc(C(=O)Nc2ccc(F)c([C@]3(C)CS(=O)(=O)[C@](C)(c4ccc(F)cc4)C(=N)N3)c2)cn1 [Example 9dg-b]	186
C[C@@]1(c2cc(NC(=O)c3ccc(C(F)(F)F)cn3)ccc2F)CS(=O)(=O)[C@@](C)(C2CCC2)C(=N)N1 [Example 9dz-a]	3.4
COc1cnc(C(=O)Nc2ccc(F)c([C@]3(C)CS(=O)(=O)[C@@](C)(C4CCC4)C(=N)N3)c2)cn1 [Example 9dy-a]	7.5
C[C@@]1(c2cc(NC(=O)c3ccc(C(F)(F)F)cn3)ccc2F)CS(=O)(=O)[C@@](C)(c2cccc(F)c2)C(=N)N1 [Example 9de-a]	3.5
CC1(C)C(=N)N[C@](C)(c2cc(NC(=O)c3ccc(C(F)(F)F)cn3)ccc2F)CS1(=O)=O [Example 6]	0.7
COc1ccc(C(=O)Nc2ccc(F)c([C@]3(C)CS(=O)(=O)[C@@](C)(CC(F)(F)F)C(=N)N3)c2)nc1 [Example 9dq-a]	8.5
C[C@]1(CC2CC2)C(=N)N[C@](C)(c2cc(NC(=O)c3ccc(Cl)cn3)ccc2F)CS1(=O)=O [Example 9di-a]	4.3
COc1ccc(C(=O)Nc2ccc(F)c([C@]3(C)CS(=O)(=O)[C@@](C)(CC4CC4)C(=N)N3)c2)nc1 [Example 9dj-a]	4.3
CC[C@@]1(C)C(=N)N[C@](C)(c2cc(NC(=O)c3ccc(F)cn3)ccc2F)CS1(=O)=O [Example 9cl-a]	5.9
COc1cnc(C(=O)Nc2ccc(F)c([C@]3(C)CS(=O)(=O)[C@@](C)(c4cccc(F)c4)C(=N)N3)c2)cn1 [Example 9dd-a]	3.9
COCC(=O)Nc1ccc(F)c([C@]2(C)CS(=O)(=O)[C@@](C)(c3cccc(C(F)(F)F)c3)C(=N)N2)c1 [Example 9cp-a]	18

Second part, the compound after the results:

Ki [nM]	SMILES
185	Cc1nnc(C(=O)Nc2ccc(F)c([C@]3(C)CS(=O)(=O)C(C)(C)C(=N)N3)c2)o1 [Example 9i]
13	Cc1ccc(C(=O)Nc2cc(F)c(F)c([C@]3(C)CS(=O)(=O)C(C)(C)C(=N)N3)c2)nc1 [Example 9bh]
13.7	CC1(C)C(=N)N[C@](C)(c2nc(NC(=O)c3ccc(Cl)cn3)ccc2F)CS1(=O)=O [Example 9cc]
703	CC1(C)C(=N)N[C@](C)(c2cc(NC(=O)CC(F)(F)F)cc(F)c2F)CS1(=O)=O [Example 9bc]
15.4	CC1(C)C(=N)N[C@](C)(c2sc(-c3cc(F)cc(-c4nnco4)c3)cc2Cl)CS1(=O)=O [Example 27ab]
1400	CC1(C)C(=N)N[C@](C)(c2sc(C(=O)NCc3ncccc3Cl)cc2Cl)CS1(=O)=O [Example 22a]
2.7	Cc1noc(C(=O)Nc2ccc(F)c([C@]3(C)CS(=O)(=O)C(C)(C)C(=N)N3)c2)n1 [Example 9h]
4.3	CC1(C)C(=N)N[C@](C)(c2cc(NC(=O)c3ccc(Cl)cn3)cc(F)c2F)CS1(=O)=O [Example 9l]
0.6	CC1(C)C(=N)N[C@](C)(c2cc(NC(=O)c3ccn(C(F)F)n3)ccc2F)CS1(=O)=O [Example 9j]
7.6	COc1ccc(C(=O)Nc2cc(F)c(F)c([C@]3(C)CS(=O)(=O)C(C)(C)C(=N)N3)c2)nc1 [Example 9m]
218	CC1(C)C(=N)N[C@](C)(c2cc(NC(=O)[C@H]3CCCO3)cc(F)c2F)CS1(=O)=O [Example 9bm]
3590	CC1(C)C(=N)N[C@](C)(c2nc(-c3ccc(C#N)s3)ccc2F)CS1(=O)=O [Example 16c]
26.1	CC1(C)C(=N)N[C@](C)(c2sc(-c3cc(F)cc(-c4cnco4)c3)cc2Cl)CS1(=O)=O [Example 27aa]
22.3	CC1(C)C(=N)N[C@](C)(c2sc(-c3cncc(-c4cnco4)c3)cc2Cl)CS1(=O)=O [Example 27ac]
4.4	COc1cnc(C(=O)Nc2cc(Cl)c(F)c([C@]3(C)CS(=O)(=O)C(C)(C)C(=N)N3)c2)cn1 [Example 9w]

Same assay, conditions: read-out: BACE1 inhibition, % Inh. at 10 μM, at 10 μM

inhibition at 10 µM [%]	SMILES
37	C[C@@]1(c2cc(N)ccc2F)CS(=O)(=O)[C@](C)(CC2CC2)C(=N)N1 [Entry 48]
30	COc1cccc([C@]2(C)C(=N)N[C@](C)(c3ccc(F)cc3F)CS2(=O)=O)c1 [Example 32f-b]
44	C[C@@]1(c2ccccn2)C(=N)N[C@](C)(c2sc(Br)cc2F)CS1(=O)=O [Entry 86]
45	CC1(C)C(=N)N[C@](C)(c2cc([N+](=O)[O-])ccc2F)CS1(=O)=O [Example 2-1]

Same assay, conditions: read-out: BACE1 inhibition, Ki

Ki [nM]	SMILES
2400	CC1(C)C(=N)N[C@](C)(c2c(F)ccc(F)c2F)CS1(=O)=O [Entry 14]
500	C[C@@]1(c2cc(N)ccc2F)CS(=O)(=O)[C@@](C)(C2CCOCC2)C(=N)N1 [Entry 50]
1900	COCC1(COC)C(=N)N[C@](C)(c2sc(Br)cc2Cl)CS1(=O)=O [Entry 89]
1400	C[C@@]1(c2cc(N)ccc2F)CS(=O)(=O)[C@@](C)(c2cc(C(F)(F)F)ccn2)C(=N)N1 [Entry 72]
7300	CC(C)[C@]1(C)C(=N)N[C@](C)(c2cc(N)ccc2F)CS1(=O)=O [Entry 28]

SMILES	Ki [nM]
CC1(C)C(=N)N[C@](C)(c2cc(Br)cs2)CS1(=O)=O [Example 6C-1]	4700
CC1(C)C(=N)N[C@](C)(c2nc(N)ccc2F)CS1(=O)=O [Example 2F-3]	6200
